Laboratory results published in patent US20130150399A1, “INHIBITORS OF THE UNFOLDED PROTEIN RESPONSE AND METHODS FOR THEIR USE” (The Board of Trustees of the Leland Stanford Junior …, priority 2006, published 2013).

Key:
His6-IRE1α-cyto = target: T1, His6-IRE1α-cyto (Homo sapiens, UniProt O75460); assay: IRE1α endonuclease (in vitro ribonuclease) assay; type: biochemical; settings: 2.5 μM
T1 construct: purified the full cytosolic portion of IRE1α (His6-IRE1α-cyto) containing both kinase and endonuclease domains; His6; made in house
Description: The in vitro ribonuclease assays were carried out using purified IRE1α-cyto essentially as described. Gonzalez and Walter, Methods Mol Biol 160: 25-36 (2001); Gonzalez et al., Embo J 18: 3119-3132 (1999). For each reaction, 5 μg purified IRE1α-cyto was incubated with 300 ng of fluorescein-labeled RNA stem-loop substrate at 37° C. in a total volume of 300 μl. Aliquots (50 μl) were withdrawn at the indicated times and mixed with an equal volume of stop solution. Id. Reactions were analyzed by SDS-PAGE using 10-20% acrylamide gradient gels. The sequence for the hXBP-1 3′ RNA stem-loop substrate is as follows: • 5′[…] 3′ (SEQ ID NO: 8). […]
HT1080 cells were exposed to DMSO vehicle (lane 1), irestatin 9389 (2.5 μM; lane 2) for 16 hours or Tm (5 μg/ml; lane 3) for 8 hours. Following treatments, cells were harvested, lysed, and analyzed by immunoblotting using anti-Grp78 antibody (top) or anti-actin (bottom) as a loading control. […] Cell lysates were analyzed by Western immunoblotting using anti-IRE1α (bottom) or anti-phospho-IRE1α antibodies (top). […] Lysates were analyzed by Western blot using antisera specific for phospho-JNK1 (top) or total JNK1 (bottom). […] F. Quantification of RNA cleavage kinetics. […] Samples were analyzed as in (E).
Next we determined whether irestatin 9389 inhibited the endonuclease function of IRE1α. […]

[1] = tested on: HT1080 s.c. tumor xenografts; type: in vivo
Description: Female 4-6 week-old SCID (B6.CB 17) mice supplied by Stanford University Animal Facility were housed in the same facility (American Association of Laboratory Animal Care-approved) with 12 hour light cycles. Food and water were provided ad libitum. All experiments were approved by the institutional care and use committee. The potential toxicities of irestatin 9389 were examined in SCID mice injected i.p. once daily over 4 consecutive days with increasing doses of irestatin 9389 or vehicle control. […] For xenografts, 2×10^6 HT1080 fibrosarcoma cells were resuspended in 50-75 μl PBS and injected s.c. in the dorsal flanks of host mice. When the implanted tumors reached a mean volume of ˜150 mm^3, mice were randomly assigned into different treatment groups. Mice were dosed by i.p. bolus injection with either vehicle (50% DMSO, 20% cremophor EL, 30% ethanol) or irestatin 9389 (50 mg/kg). Tumors (6-8 per group) were measured every 2-4 days with calipers. Tumor volume was calculated using the formula [(W^2×L) 0.52] where W=width and L=length.
A. Irestatin 9389 impairs IRE1α activity in implanted tumor xenografts. Equal numbers (2×10^6) of XBP-luciferase or CMV-luciferase reporter cells were implanted s.c. into SCID mice. After one week, mice were treated with irestatin 9389 (50 mg/kg), followed by optical bioluminescence imaging. B. Inhibition of tumor growth by irestatin 9389. HT1080 s.c. tumor xenografts were established in SCID mice and allowed to reach a mean volume of 150 mm^3 before treatment. Irestatin 9389 (50 mg/kg) or vehicle control was administered q 2d by i.p. injection and continued for 2 weeks, for a total of 6 doses. Tumor volumes were calculated based on caliper measurements taken every 3-5 days. Data points represent the mean volume calculated from at least 7 tumors per group, with SEM shown in one direction. Mean mouse weights+/−SEM are shown in bottom graph. C.
Next, we tested if treatment with irestatin 9389 could have a direct impact on tumor growth. […]

T1 sequence (O75460 465-977 limits assumed): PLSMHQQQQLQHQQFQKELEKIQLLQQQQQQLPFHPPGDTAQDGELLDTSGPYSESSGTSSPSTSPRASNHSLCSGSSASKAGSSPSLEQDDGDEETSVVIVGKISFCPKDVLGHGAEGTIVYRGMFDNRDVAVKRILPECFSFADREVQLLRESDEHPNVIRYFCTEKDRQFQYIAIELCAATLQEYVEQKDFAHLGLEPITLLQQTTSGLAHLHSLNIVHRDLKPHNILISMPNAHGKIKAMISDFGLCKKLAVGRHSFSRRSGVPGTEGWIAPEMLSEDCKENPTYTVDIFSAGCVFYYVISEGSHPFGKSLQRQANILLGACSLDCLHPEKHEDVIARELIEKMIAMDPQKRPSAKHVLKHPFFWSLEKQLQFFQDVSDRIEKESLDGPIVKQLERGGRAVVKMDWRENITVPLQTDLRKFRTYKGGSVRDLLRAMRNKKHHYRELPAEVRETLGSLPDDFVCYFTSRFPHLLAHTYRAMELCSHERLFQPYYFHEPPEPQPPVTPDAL

**Q.** How did the “cleavage of XBP-1 target RNA by IRE1α endonuclease” value (His6-IRE1α-cyto) turn out when `Cc1csc(NC(=O)CSc2nc3c(c(C(F)(F)F)c2C#N)CCC3)n1` [Compound 9389] was run?
**A.** strongly inhibited cleavage

**Q.** What about the antitumor effects ([1]; 50 mg/kg i.p. every other day, 6 doses) of the same compound?
**A.** significant cytostatic antitumor effects

**Q.** And the mean tumor volume ([1]; 50 mg/kg i.p. every other day, 6 doses, one week after the last treatment, P<0.01)?
**A.** 480+/−210 mm^3

**Q.** What about the “weight loss compared to vehicle-treated mice” value ([1]; mouse, in vivo) of the same compound?
**A.** did not exhibit significant long-term weight loss
